“Also recorded” adds a separate entry of the source.

The values below come from US20080269161A1, “Compositions and Methods Relating to Mitochondrial Hyperpolarization in Neurological Disease” (priority 2005, published 2008).

For experiment [1], the target named is T1, human adenosine receptor A2B (Homo sapiens, UniProt P29275).
T1 sequence (P29275 1-332): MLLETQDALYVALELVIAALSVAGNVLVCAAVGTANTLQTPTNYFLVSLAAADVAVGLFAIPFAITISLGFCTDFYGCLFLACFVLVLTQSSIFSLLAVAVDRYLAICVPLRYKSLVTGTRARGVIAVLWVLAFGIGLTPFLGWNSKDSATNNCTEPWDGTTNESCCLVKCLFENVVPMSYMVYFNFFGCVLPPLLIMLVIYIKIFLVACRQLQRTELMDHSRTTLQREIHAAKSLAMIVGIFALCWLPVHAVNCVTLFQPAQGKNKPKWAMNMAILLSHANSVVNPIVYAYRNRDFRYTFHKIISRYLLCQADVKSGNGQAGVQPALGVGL
Conditions: recombinant human receptor; cited from earlier work.

For experiment [2], the target named is human adenosine receptor A2A (Homo sapiens, UniProt P29274). The settings on record: recombinant human receptor; cited from earlier work.
The target in experiment [3] is T2, human adenosine receptor A1 (Homo sapiens, UniProt P30542).
T2 sequence (P30542 1-326): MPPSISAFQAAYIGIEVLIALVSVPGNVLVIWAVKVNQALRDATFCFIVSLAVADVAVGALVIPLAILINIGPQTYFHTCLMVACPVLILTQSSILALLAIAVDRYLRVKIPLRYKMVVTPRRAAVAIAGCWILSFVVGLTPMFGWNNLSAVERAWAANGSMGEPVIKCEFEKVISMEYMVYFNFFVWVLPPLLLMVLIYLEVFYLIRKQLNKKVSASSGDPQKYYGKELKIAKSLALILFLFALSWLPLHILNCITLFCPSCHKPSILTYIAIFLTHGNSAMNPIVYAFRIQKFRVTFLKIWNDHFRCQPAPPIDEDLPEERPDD
The settings on record: recombinant human receptor; cited from earlier work.

The target of experiment [4] is T3, human adenosine receptor A3 (Homo sapiens, UniProt P0DMS8).
T3 sequence (P0DMS8 1-318): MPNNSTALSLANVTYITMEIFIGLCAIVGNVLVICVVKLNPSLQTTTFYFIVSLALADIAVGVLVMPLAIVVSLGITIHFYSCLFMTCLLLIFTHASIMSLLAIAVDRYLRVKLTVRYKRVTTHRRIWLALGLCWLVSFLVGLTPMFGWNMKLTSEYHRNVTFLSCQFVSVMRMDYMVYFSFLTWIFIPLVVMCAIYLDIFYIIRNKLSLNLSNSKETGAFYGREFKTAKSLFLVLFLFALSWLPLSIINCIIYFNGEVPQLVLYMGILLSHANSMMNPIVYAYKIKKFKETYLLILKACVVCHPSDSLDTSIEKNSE
The settings on record: recombinant human receptor; cited from earlier work.

Experiment [5] concerns rat cerebellar granule neurons (CGNs). The experiment is described as follows: Tat-induced apoptosis of cerebellar granule neurons (TUNEL). Type of experiment: cell-based. The settings on record: Tat 500 nM, 48 h. As for the experimental part: CGNs were exposed to HIV-1 Tat (Tat, 500 nM), or vehicle alone (NT), in the presence or absence of the A2A antagonist, ZM241385. After 48 h, cultures were analyzed for the percentage of apoptotic cells using the TUNEL assay. Data represent mean±SEM for one experiment that was performed in triplicate; data are representative of two independent experiments.
CGNs were exposed to HIV-1 Tat (Tat, 500 nM), or vehicle alone (No Tat), in the presence or absence of the A2AR antagonists, ATL455 and ZM241385, or the A2AR agonists ATL313 and CGS21680. After 48 h, cultures were analyzed for the percentage of apoptotic cells using the TUNEL assay. Data represent mean±SEM for one experiment that was performed in triplicate; data are representative of two independent experiments.
(1) Primary rat cerebellar granule neurons (CGNs). CGNs represent a highly homogenous population of primary neurons which are susceptible to Tat and PAF-mediated cell killing and have been used in many of previous studies. CGN cells are isolated according to published procedures [Maggirwar, S. B., et al. 1999. J Neurochem 73:578-86] [Tong, N., et al. 2001. Eur J Neurosci 13:1913-22].
78(4): p. […] 22(6): p. 1102-6].
Primary rat cerebellar granule neurons (CGNs) were exposed to a neurotoxic concentration of HIV-1 Tat, in the presence or absence of an A2AR antagonist (ZM241385). […] It is important to note that CGNs express adenosine A2A receptors [Vacas, J., et al. 2003. Brain Res 992:272-280].
Primary cultures of rat cerebellar granule neurons (CGNs) were exposed to HIV-Tat ([…]) alone or together with increasing doses of the A2AR antagonist ATL-455 or A2A agonists ATL313 or CGS21680. Cells are treated with the test compounds for defined time intervals of up to 48 hours (1, 4, 8, 24, and 48 hours).

Experiment [6] has as its system Tat-stimulated TNF release in monocytes. Kind of experiment: Tat-stimulated TNF release by primary monocytes (ELISA). Conditions: 4 h. The format is cell-based, human. As to the method:
Human primary monocytes were treated with Tat (100 nM) in the presence or absence of the A2AR agonist, CGS21680 (CGS; 1 μM) or the A2AR antagonist, ZM241385 (100 nM) for 4 h. TNF levels in culture supernatants were then quantitated by ELISA. Data represent mean+SEM of three replicates, from a single representative experiment
Primary monocytes were seeded in separate triplicate wells, and exposed independently to LPS (100 ng/ml), vehicle (NT) or Tat (100 nM) in the presence or absence of the A2AR agonist, CGS21680 (1 μM). After 4 h, cells were harvested. (A) TNF was measured in cell supernatants by ELISA Mean data values (±S.D.) are shown for the triplicate wells. (B) The corresponding cells from each well in panel A were lysed and subjected to qRTPCR analysis. Each cDNA sample was analyzed in quadruplicate. Assay results are presented as fold induction of gene expression, compared to untreated cells, after normalization to levels of GAPDH. Data represent mean±SD for each individual experimental replicate/well.
Human primary monocytes were treated with Tat (100 nM) in the presence or absence of the A2AR agonist, ATL313 (1-4 nM) or the A2AR antagonist, ATL455 (1-4 nM) for 4 h. TNF levels in culture supernatants were then quantitated by ELISA. […]
Human primary monocytes were treated with Tat (100 nM) in the presence or absence of the A2AR agonist, ATL313 (at the indicated doses) for 4 h. TNF levels in culture supernatants were then quantitated by ELISA. […]
(6) Primary monocytes. […] Results are compared for both populations, as well as purity (as assessed by immunophenotyping using CD14, CD68 and MHC class II).
The effect of an A2AR agonist on TNF release by primary human monocytes was also determined. Monocytes were stimulated with HIV-1 Tat, in the presence or absence of the A2AR agonist CGS21680 or the A2AR antagonist ZM251385 and TNF release was then measured in cell culture supernatants using an ELISA assay.
Quantitative real-time PCR analysis was used to measure TNF message levels in Tat-treated monocytes. […]

Sequence of human adenosine receptor A2A (P29274 whole entry): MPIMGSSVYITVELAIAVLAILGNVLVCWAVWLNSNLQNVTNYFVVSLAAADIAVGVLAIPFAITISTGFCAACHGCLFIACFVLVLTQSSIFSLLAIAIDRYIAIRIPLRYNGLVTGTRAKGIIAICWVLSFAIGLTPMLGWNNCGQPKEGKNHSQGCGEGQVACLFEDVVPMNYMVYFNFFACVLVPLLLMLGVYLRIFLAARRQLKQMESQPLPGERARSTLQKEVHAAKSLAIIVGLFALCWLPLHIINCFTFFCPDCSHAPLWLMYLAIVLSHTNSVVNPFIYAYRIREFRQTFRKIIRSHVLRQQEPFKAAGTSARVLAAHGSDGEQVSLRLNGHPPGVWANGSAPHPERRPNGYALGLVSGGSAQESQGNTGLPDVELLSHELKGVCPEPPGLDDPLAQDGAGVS

Regarding `COC(=O)N1CCC(CC#Cc2nc(N)c3ncn(C4OC(C(=O)NC5CC5)C(O)C4O)c3n2)CC1` (stereo not shown) [ATL313, 4-{3-[6-amino-9-(5-cyclopropylcarbamoyl-3,4-dihydroxytetrahydrofuran-2-yl)-9H-purin-2-yl]prop-2-ynyl}piperidine-1-carboxylic acid methyl ester], the Ki in experiment [1] was over 1 µM; in experiment [2], 0.0006 µM; in experiment [3], 0.052 µM; in experiment [4], 0.32 µM. In addition, the “effect on Tat-induced neuronal apoptosis” value in experiment [5] is listed as “did not result in an increase in cell death”. The IC50 in experiment [6] (Homo sapiens, Monocyte, read-out: approximate IC50 for inhibitory effect on Tat-stimulated TNF release in monocytes) was under 0.001 µM. In addition, the “effect on Tat-induced monocyte activation (TNF release)” value in experiment [6] (Tat 100 nM, CGS21680 1 μM, ATL313, ATL455 1-4 nM) is reported as “very similar results; also recorded: opposed”.
